Measurements as given in patent publication US12655116B2, “Substituted isophthalic acid diamides” (Bayer Aktiengesellschaft, priority 2020, dated 2026).

Columns and labels:
MATIN [1] = assay: Pre-emergence herbicidal action against MATIN; format: in vivo, Matricaria inodora
Outline: (§1)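 Greenhouse pots of sandy loam held seeds covered with soil, onto which the compound was applied before emergence. An aqueous suspension or emulsion of WP or EC was used at 600 to 800 l/ha with 0.2% wetting agent. Percent damage was judged visually at 3 weeks.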

ECHCG [2] = assay: Pre-emergence herbicidal action against ECHCG; format: in vivo, Echinochloa crus-galli; settings: 80 g/ha
Outline: as §1

LOLRI = assay: Pre-emergence herbicidal action against LOLRI; format: in vivo, Lolium rigidum; settings: 80 g/ha
Outline: as §1

VIOTR [3] = assay: Pre-emergence herbicidal action against VIOTR; format: in vivo, Viola tricolor
Outline: as §1

AMARE [4] = assay: Pre-emergence herbicidal action against AMARE; format: in vivo, Amaranthus retroflexus
Outline: as §1

DIGSA [5] = assay: Pre-emergence herbicidal action against DIGSA; format: in vivo, Digitaria sanguinalis
Outline: as §1

PHBPU [6] = assay: Pre-emergence herbicidal action against PHBPU; format: in vivo, Pharbitis purpurea
Outline: as §1

ALOMY [7] = assay: Pre-emergence herbicidal action against ALOMY; format: in vivo, Alopecurus myosuroides
Outline: as §1

POLCO = assay: Pre-emergence herbicidal action against POLCO; format: in vivo, Polygonum convolvulus; settings: dosage 80 g/ha
Outline: as §1

ABUTH [8] = assay: Pre-emergence herbicidal action against ABUTH; format: in vivo, Abutilon theophrasti
Outline: as §1

AVEFA = assay: Pre-emergence herbicidal action against AVEFA; format: in vivo, Avena fatua
Outline: as §1

ALOMY [9] = assay: Post-emergence herbicidal action against ALOMY; format: in vivo, Alopecurus myosuroides; settings: dosage 20 g/ha, visual assessment about 3 weeks after treatment vs untreated controls
Outline: (§2)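 Foliar application at one-leaf stage of formulated test compounds, aqueous spray at 600–800 l/ha with 0.2% wetting agent. Greenhouse, optimal conditions, ~3 weeks; damage scored visually in % relative to untreated plants.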

AMARE [10] = assay: Post-emergence herbicidal action against AMARE; format: in vivo, Amaranthus retroflexus; settings: 20 g/ha, visual assessment about 3 weeks after treatment, 100% = plants have died, 0% = like control plants
Outline: as §2

VERPE = assay: Pre-emergence herbicidal action against VERPE; format: in vivo, Veronica persica
Outline: as §1

MATIN [11] = assay: Post-emergence herbicidal action against MATIN; format: in vivo, Matricaria inodora; settings: dosage 20 g/ha
Outline: as §2

ABUTH [12] = assay: Post-emergence herbicidal action against ABUTH; format: in vivo, Abutilon theophrasti; settings: visual assessment about 3 weeks after treatment vs untreated controls
Outline: as §2

SETVI [13] = assay: Pre-emergence herbicidal action against SETVI; format: in vivo, Setaria viridis; settings: dosage 80 g/ha
Outline: as §1

VIOTR [14] = assay: Post-emergence herbicidal action against VIOTR; format: in vivo, Viola tricolor; settings: 20 g/ha
Outline: as §2

PHBPU [15] = assay: Post-emergence herbicidal action against PHBPU; format: in vivo, Pharbitis purpurea
Outline: as §2

ECHCG [16] = assay: Post-emergence herbicidal action against ECHCG; format: in vivo, Echinochloa crus-galli; settings: dosage 20 g/ha
Outline: as §2

SETVI [17] = assay: Post-emergence herbicidal action against SETVI; format: in vivo, Setaria viridis; settings: dosage 20 g/ha
Outline: as §2

DIGSA [18] = assay: Post-emergence herbicidal action against DIGSA; format: in vivo, Digitaria sanguinalis; settings: 20 g/ha
Outline: as §2

[19] = 20 g/ha, scored visually after 3 weeks vs untreated controls, 100% = plants have died, 0% = like control plants
[20] = 80 g/ha, scored visually after 3 weeks vs untreated controls (100% = plants have died, 0% = like control plants)
[21] = 20 g/ha, scored visually after 3 weeks, 100% = plants have died, 0% = like control plants
[22] = 80 g/ha, pre-emergence, scored visually after 3 weeks vs untreated controls (100% = plants have died, 0% = like control plants)
[23] = dosage 20 g/ha, scored visually after 3 weeks vs untreated controls, 100% = plants have died, 0% = like control plants

`CCn1nnnc1NC(=O)c1ccc(C(F)F)c(C(=O)NC(C)C)c1Cl` [Example 2-155] gave a pest or weed control at 20 g/ha (MATIN [1]; Tripleurospermum inodorum, 504 h, dosage 20 g/ha) of 100%, a pest or weed control at 80 g/ha (MATIN [1]; Tripleurospermum inodorum, 504 h, dosage 80 g/ha) of 100% and a pest or weed control at 80 g/ha (ECHCG [2]; Echinochloa crus-galli, 504 h) of 100%. For the same compound, the pest or weed control at 80 g/ha (LOLRI; Lolium rigidum, 504 h) was 80%, the pest or weed control at 20 g/ha (VIOTR [3]; Viola tricolor, 504 h, dosage 20 g/ha) was 90% and the pest or weed control at 80 g/ha (VIOTR [3]; Viola tricolor, 504 h, dosage 80 g/ha) was 100%. It also gave a pest or weed control at 20 g/ha (AMARE [4]; Amaranthus retroflexus, 504 h, 20 g/ha, scored visually after 3 weeks vs untreated controls, 100% = plants have died, 0% = like control plants) of 100%, a pest or weed control at 80 g/ha (AMARE [4]; Amaranthus retroflexus, 504 h, 80 g/ha, scored visually after 3 weeks vs untreated controls, 100% = plants have died, 0% = like control plants) of 100% and a pest or weed control at 20 g/ha (DIGSA [5]; Digitaria sanguinalis, 504 h, dosage 20 g/ha) of 100%. It also gave a pest or weed control at 80 g/ha (DIGSA [5]; Digitaria sanguinalis, 504 h, dosage 80 g/ha) of 100%, a pest or weed control at 80 g/ha (PHBPU [6]; Ipomoea purpurea, 504 h, dosage 80 g/ha) of 100% and a pest or weed control at 80 g/ha (ALOMY [7]; Alopecurus myosuroides, 504 h, 80 g/ha, pre-emergence, scored visually after 3 weeks vs untreated controls (100% = plants have died, 0% = like control plants)) of 100%. The pest or weed control at 20 g/ha (ALOMY [7]; Alopecurus myosuroides, pre-emergence, 504 h, 20 g/ha, scored visually after 3 weeks, 100% = plants have died, 0% = like control plants) was 80%, the pest or weed control at 80 g/ha (POLCO; Fallopia convolvulus, 504 h) was 90% and the pest or weed control at 80 g/ha (ABUTH [8]; Abutilon theophrasti, 504 h, 80 g/ha, scored visually after 3 weeks vs untreated controls (100% = plants have died, 0% = like control plants)) was 100%. The pest or weed control at 20 g/ha (ABUTH [8]; Abutilon theophrasti, 504 h, dosage 20 g/ha, scored visually after 3 weeks vs untreated controls, 100% = plants have died, 0% = like control plants, read-out: Pre-emergence action against ABUTH (herbicidal activity in percent)) was 100%, the pest or weed control at 80 g/ha (AVEFA; Avena fatua, 504 h, 80 g/ha, pre-emergence) was 90% and the pest or weed control at 20 g/ha (ALOMY [9]; Alopecurus myosuroides, 504 h) was 90%. It also gave a pest or weed control at 20 g/ha (AMARE [10]; Amaranthus retroflexus, 504 h) of 90%, a pest or weed control at 20 g/ha (VERPE; Veronica persica, 504 h, dosage 20 g/ha) of 80% and a pest or weed control at 80 g/ha (VERPE; Veronica persica, 504 h, dosage 80 g/ha) of 100%. The pest or weed control at 20 g/ha (MATIN [11]; Tripleurospermum inodorum, 504 h) was 90%, the pest or weed control at 5 g/ha (ABUTH [12]; Abutilon theophrasti, 504 h, dosage 5 g/ha) was 80% and the pest or weed control at 20 g/ha (ABUTH [12]; Abutilon theophrasti, 504 h, dosage 20 g/ha) was 80%. For the same compound, the pest or weed control at 80 g/ha (SETVI [13]; Setaria viridis, 504 h) was 90%, the pest or weed control at 20 g/ha (VIOTR [14]; Viola tricolor, 504 h) was 80% and the pest or weed control at 20 g/ha (PHBPU [15]; Ipomoea purpurea, 504 h, dosage 20 g/ha) was 80%.
In the case of `CCc1c(C(=O)Nc2nnnn2CC)ccc(C(F)(F)F)c1C(=O)NCC(F)F` [Example 2-276], the “Pre-emergence action against MATIN in %” value (MATIN [1]; dosage 20 g/ha) is reported as 100%, the “Pre-emergence action against MATIN in %” value (MATIN [1]; dosage 80 g/ha) is reported as 100% and the “Pre-emergence action against ECHCG in %” value (ECHCG [2]) is reported as 80%. The “Pre-emergence action against LOLRI in %” value (LOLRI) was 80%, the “Pre-emergence action against VIOTR in %” value (VIOTR [3]; dosage 20 g/ha) was 100% and the “Pre-emergence action against VIOTR in %” value (VIOTR [3]; dosage 80 g/ha) was 100%. For the same compound, the “Pre-emergence action against AMARE in %” value (AMARE [4]; [19]) was 100%, the “Pre-emergence action against AMARE in %” value (AMARE [4]; [20]) was 100% and the “Pre-emergence action against PHBPU in %” value (PHBPU [6]; dosage 80 g/ha) was 90%. For the same compound, the “Pre-emergence action against ALOMY” value (ALOMY [7]; [21]) was 90%, the “Pre-emergence action against ALOMY (herbicidal activity)” value (ALOMY [7]; [22]) was 90% and the “Pre-emergence action against POLCO in %” value (POLCO) was 90%. The “Post-emergence action against ECHCG in %” value (ECHCG [16]) was 90%, the “Pre-emergence action against ABUTH (herbicidal activity)” value (ABUTH [8]; [20]) was 100% and the “Pre-emergence action against ABUTH (herbicidal activity in percent)” value (ABUTH [8]; [23]) was 100%. For the same compound, the “Pre-emergence action against AVEFA” value (AVEFA; [21]) was 80%, the “Pre-emergence action against AVEFA in %” value (AVEFA; 80 g/ha, pre-emergence) was 90% and the “Post-emergence action against ALOMY in %” value (ALOMY [9]) was 80%. For the same compound, the “Post-emergence action against SETVI in %” value (SETVI [17]) was 80%, the “Post-emergence action at 20 g/ha against AMARE in %” value (AMARE [10]) was 90% and the “Pre-emergence action against VERPE in %” value (VERPE; dosage 80 g/ha) was 80%. The “Post-emergence action against MATIN in %” value (MATIN [11]) was 90%, the “Post-emergence action against ABUTH in %” value (ABUTH [12]; dosage 5 g/ha) was 80% and the “Post-emergence action against ABUTH in %” value (ABUTH [12]; dosage 20 g/ha) was 80%. For the same compound, the “Pre-emergence action against SETVI in %” value (SETVI [13]) was 100%, the “Post-emergence action against VIOTR in %” value (VIOTR [14]) was 80% and the “Post-emergence action against PHBPU in %” value (PHBPU [15]; dosage 5 g/ha) was 80%. For the same compound, the “Post-emergence action against PHBPU in %” value (PHBPU [15]; dosage 20 g/ha) was 90%.
With `CCCNC(=O)c1c(C(F)F)ccc(C(=O)Nc2nnnn2CC)c1Cl` [Example 2-154] the “Pre-emergence action against MATIN in %” value (MATIN [1]; dosage 20 g/ha) was 100%, the “Pre-emergence action against MATIN in %” value (MATIN [1]; dosage 80 g/ha) was 100% and the “Pre-emergence action against ECHCG in %” value (ECHCG [2]) was 100%. For the same compound, the “Pre-emergence action against LOLRI in %” value (LOLRI) was 90%, the “Post-emergence action against DIGSA” value (DIGSA [18]) was 90% and the “Pre-emergence action against VIOTR in %” value (VIOTR [3]; dosage 80 g/ha) was 100%. The “Pre-emergence action against AMARE in %” value (AMARE [4]; [19]) was 100%, the “Pre-emergence action against AMARE in %” value (AMARE [4]; [20]) was 100% and the “Pre-emergence action against DIGSA in %” value (DIGSA [5]; dosage 20 g/ha) was 100%. For the same compound, the “Pre-emergence action against DIGSA in %” value (DIGSA [5]; dosage 80 g/ha) was 100%, the “Pre-emergence action against PHBPU in %” value (PHBPU [6]; dosage 20 g/ha) was 80% and the “Pre-emergence action against PHBPU in %” value (PHBPU [6]; dosage 80 g/ha) was 100%. For the same compound, the “Pre-emergence action against ALOMY (herbicidal activity)” value (ALOMY [7]; [22]) was 100%, the “Pre-emergence action against POLCO in %” value (POLCO) was 90% and the “Post-emergence action against ECHCG in %” value (ECHCG [16]) was 90%. The “Pre-emergence action against ABUTH (herbicidal activity)” value (ABUTH [8]; [20]) was 100%, the “Pre-emergence action against ABUTH (herbicidal activity in percent)” value (ABUTH [8]; [23]) was 100% and the “Post-emergence action against ALOMY in %” value (ALOMY [9]) was 80%. For the same compound, the “Post-emergence action at 20 g/ha against AMARE in %” value (AMARE [10]) was 90%, the “Pre-emergence action against VERPE in %” value (VERPE; dosage 80 g/ha) was 100% and the “Post-emergence action against MATIN in %” value (MATIN [11]) was 80%. For the same compound, the “Post-emergence action against ABUTH in %” value (ABUTH [12]; dosage 5 g/ha) was 80%, the “Post-emergence action against ABUTH in %” value (ABUTH [12]; dosage 20 g/ha) was 90% and the “Pre-emergence action against SETVI in %” value (SETVI [13]) was 100%. For the same compound, the “Post-emergence action against PHBPU in %” value (PHBPU [15]; dosage 5 g/ha) was 90% and the “Post-emergence action against PHBPU in %” value (PHBPU [15]; dosage 20 g/ha) was 90%.
